# Measured values taken from patent publication US20100040620A1, “ANTI-CANCER ANTIBODIES AGAINST LEWISy AND LEWISb ANTIGENS” (priority 2006, published 2010).
# Tested on: C170 xenografts
# Assay: Prevention model, C170 xenografts
# Assay type: in vivo
# Conditions: SC101/29 0.2 mg ip 3 times weekly; 5-FU/leucovorin 12.5 mg/kg iv; days 12-23; p<0.004 ANOVA alone, p<0.02 combination
# Procedure: Prevention model. The colorectal tumour cell line, C170 was maintained in serial passage in nude mice. For therapy the mice were sacrificed and the tumours excised. The tumour was finely minced and 3 mm^2 pieces were implanted, under anaesthetic (Hypnorm, Roche/Hypnovel, Jannsen), subcutaneously, into 40 male mice which had been randomly allocated to 4 experimental groups. A group of mice were treated with 5-FU/leucovorin (12.5 mg/kg) by intravenous (iv) injection on days 1, 3, 5, 7, 21 and 22. Three times weekly mice were also injected intraperitoneally (ip) with 0.2 mg of SC101/29 mAb. Control mice received either SC101/29 mAb, 5-FU/leucovorin or vehicle alone. Tumour size was measured by callipers and tumour cross-sectional area calculated on days 12, 16, 19 and 23. At the termination of the experiment tumours were weighed to assess anti-tumour efficacy. Animals were weighed to assess the toxicity of treatment.
substance,measurement,value
5-FU/leucovorin,tumour growth of freshly explanted C170 tumours (cross-sectional area),inhibition of tumour growth
